One test deals with T1, ErbB2 or EGFR.
T1 construct: enzymes purified from a baculovirus expression system
The experiment in a line: ErbB enzyme substrate phosphorylation assay (HTRF), Method B (enzyme pre-incubated with compound 1 hour). The format is biochemical. The following applies: Table 1, enzyme Method B: enzyme mix incubated with compound 1 hour at 20° C., reaction started with substrate mix; class over ErbB2 or EGFR. An outline of the steps: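 Baculovirus-expressed kinase (0.8 nM EGFR or 10 nM ErbB2 in enzyme mix) phosphorylated biotinylated Peptide C (0.8 µM in substrate mix) with 20 µM ATP in substrate mix, MOPS pH 7.5, MnCl2, 90 min at 20 °C. Method A started with enzyme; Method B pre-incubated enzyme with compound 1 h at 20 °C. HTRF read-out; IC50 from 12-point curve (0.00027–47.6 µM), reported as pIC50.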

Test [1] deals with BT474 and HN5 tumor cell lines. The test is described as follows: Methylene blue growth inhibition assay (cellular Method A). Format: cell-based. Conditions: Homo sapiens, BT-474 and HN5, 72 h; Table 2, Method A methylene blue, 3 days; class over BT474 and HN5. As to the method:
(§1) Human breast (BT474) and head and neck (HN5) were cultured in low glucose DMEM (Life Technologies 12320-032) containing 10% fetal bovine serum (FBS). Human colon tumor cells (Colo205) were cultured in DMEM (Invitrogen, 10564) containing 10% FBS. The SV40 transformed human mammary epithelial cell line to HB4a was transfected with either human H-ras cDNA (HB4a r4.2) or the human c-ErbB2 cDNA (HB4a c5.2). The HB4a clones were cultured in RPMI containing 10% FBS, insulin ([…]), hydrocortisone ([…]), supplemented with the selection agent hygromycin B ([…]). All lines were grown in a humidified incubator at 37° C. in 95% air, 5% CO2. Cells were harvested using trypsin/EDTA, counted using a haemocytometer, and plated in 100 microliters of the appropriate media, at the following densities, in a 96-well tissue culture plate (Falcon 3075): BT474 10,000 cells/well, HN5 3,000 cells/well. The next day, compounds were diluted in DMEM containing […] gentamicin, at twice the final required concentration, from 10 mM stock solutions in DMSO. 100 microliters/well of these dilutions were added to the 100 microliters of media currently on the cell plates. Medium containing 0.6% DMSO was added to control wells. Compounds diluted in DMEM were added to all cell lines. The final concentration of DMSO in all wells was 0.3%. Cells were returned to the incubator (37° C., […]) for 3 days. Medium was then removed by aspiration. Cell biomass was estimated by staining cells with 90 microliters per well methylene blue (Sigma M9140, 0.5% in 1:1 ethanol:water), and incubation at rt for at least 30 minutes. Stain was removed, and the plates rinsed by immersion in deionized water and air-dried. To release stain from the cells 100 microliters of solubilization solution was added (1% N-lauroyl sarcosine, Sodium salt, Sigma L5125, in PBS), and plates were shaken gently for about 30 minutes. Optical density at 620 nm was measured on a microplate reader. Percent inhibition of cell growth was calculated relative to vehicle treated control wells. Concentration of compound that inhibits 50% of control cell growth (IC50) was interpolated using nonlinear regression (Levenberg-Marquardt) and the equation, y=Vmax*(1−(x/(K+x)))+Y2, where “K” was equal to the IC50. Method B: Celltiter Glo® Growth Inhibition Assays

The next test relates to Colo205 tumor cell lines. The test is described as above. The format is cell-based. The following applies: Homo sapiens, COLO 205, 72 h, Table 3, Method A methylene blue, 3 days. The protocol:
as §1

Data on 15 molecules can be found in patent US7807673B2, “2-pyrimidinyl pyrazolopyridine ErbB kinase inhibitors” (GlaxoSmithKline LLC, priority 2005, dated 2010).

The term IC50 denotes the point on the concentration scale where inhibition reaches its midpoint. Low values mean greater potency in that assay, high ones weaker potency in that assay.

Consider `CCN(CC)CCOc1cccc(Nc2nccc(-c3c(-c4cccc(NC(=O)Cc5cccs5)c4)nn4ccccc34)n2)c1` [Example 14, N-[3-(3-{2-[(3-{[2-(Diethylamino)ethyl]oxy}phenyl)amino]-4-pyrimidinyl}pyrazolo[1,5-a]pyridin-2-yl)phenyl]-2-(2-thienyl)acetamide], for which the “Activity (Method)” value on ErbB2 or EGFR is recorded as “+++ (B) (at least one pIC50 measurement of greater than 7 against either ErbB2 or EGFR)”. For the same molecule, the IC50 (in test [1]; with Colo205 tumor cell lines) was 100 to 1000 nM in each case.

On to `CN(C)CCOc1cccc(Nc2nccc(-c3c(-c4cccc(NC(=O)Cc5cccs5)c4)nn4ccccc34)n2)c1` [Example 15, N-[3-(3-{2-[(3-{[2-(Dimethylamino)ethyl]oxy}phenyl)amino]-4-pyrimidinyl}pyrazolo[1,5-a]pyridin-2-yl)phenyl]-2-(2-thienyl)acetamide], for which, on ErbB2 or EGFR, the “Activity (Method)” value was “+++ (B) (at least one pIC50 measurement of greater than 7 against either ErbB2 or EGFR)”. The IC50 (in test [1]; with Colo205 tumor cell lines) was 100 to 1000 nM each time.

Take `O=C(Cc1cccs1)Nc1cccc(-c2nn3ccccc3c2-c2ccnc(Nc3ccc4c(c3)CNCC4)n2)c1` [Example 16, N-(3-{3-[2-(1,2,3,4-Tetrahydro-7-isoquinolinylamino)-4-pyrimidinyl]pyrazolo[1,5-a]pyridin-2-yl}phenyl)-2-(2-thienyl)acetamide]: on ErbB2 or EGFR, the “Activity (Method)” value was “+++ (B) (at least one pIC50 measurement of greater than 7 against either ErbB2 or EGFR)”. For the same molecule, the IC50 (in test [1]; in the test on Colo205 tumor cell lines) was 100 to 1000 nM each time.

Consider `CN(C)Cc1cccc(Nc2nccc(-c3c(-c4cccc(NC(=O)Cc5ccsc5)c4)nn4ccccc34)n2)c1` [Example 24, N-(3-{3-[2-({3-[(Dimethylamino)methyl]phenyl}-amino)-4-pyrimidinyl]pyrazolo[1,5-a]pyridin-2-yl}phenyl)-2-(3-thienyl)acetamide], for which, at ErbB2 or EGFR, the “Activity (Method)” value is given as “+++ (B) (at least one pIC50 measurement of greater than 7 against either ErbB2 or EGFR)”. For the same molecule, the IC50 (in test [1]; in the test with Colo205 tumor cell lines) was 100 to 1000 nM each time.

As for `CN(C)Cc1cccc(Nc2nccc(-c3c(-c4cccc(NC(=O)Cc5c(F)cccc5F)c4)nn4ccccc34)n2)c1` [Example 25, 2-(2,6-Difluorophenyl)-N-(3-{3-[2-({3-[(dimethylamino)methyl]-phenyl}amino)-4-pyrimidinyl]pyrazolo[1,5-a]pyridin-2-yl}phenyl)acetamide], the “Activity (Method)” value on ErbB2 or EGFR was “++ (B) (at least one pIC50 measurement greater than 6 against either ErbB2 or EGFR but no measurement greater than pIC50 of 7)”. The results for the IC50 (in test [1]; with Colo205 tumor cell lines) were more than 1000 nM and 100 to 1000 nM, respectively.

Regarding `CN(C)Cc1cccc(Nc2nccc(-c3c(-c4cccc(NC(=O)Cc5cccnc5)c4)nn4ccccc34)n2)c1` [Example 26, N-(3-{3-[2-({3-[(Dimethylamino)methyl]phenyl}amino)-4-pyrimidinyl]pyrazolo[1,5-a]pyridin-2-yl}phenyl)-2-(3-pyridinyl)acetamide], the “Activity (Method)” value on ErbB2 or EGFR is recorded as “++ (B) (at least one pIC50 measurement greater than 6 against either ErbB2 or EGFR but no measurement greater than pIC50 of 7)”. The IC50 (in test [1]; in the test with Colo205 tumor cell lines) was more than 1000 nM in each case.

In the case of `CN(C)Cc1cccc(Nc2nccc(-c3c(-c4cccc(NC(=O)Cc5ccccn5)c4)nn4ccccc34)n2)c1` [Example 27, N-(3-{3-[2-({3-[(Dimethylamino)methyl]phenyl}amino)-4-pyrimidinyl]pyrazolo[1,5-a]pyridin-2-yl}phenyl)-2-(2-pyridinyl)acetamide], at ErbB2 or EGFR, the “Activity (Method)” value is “++ (B) (at least one pIC50 measurement greater than 6 against either ErbB2 or EGFR but no measurement greater than pIC50 of 7)”. The IC50 (in test [1]; in the test on Colo205 tumor cell lines) was more than 1000 nM in each case.

Regarding `Cc1cc(CC(=O)Nc2cccc(-c3nn4ccccc4c3-c3ccnc(Nc4cccc(CN(C)C)c4)n3)c2)on1` [Example 28, N-(3-{3-[2-({3-[(Dimethylamino)methyl]-phenyl}amino)-4-pyrimidinyl]pyrazolo[1,5-a]pyridin-2-yl}phenyl)-2-(3-methyl-5-isoxazolyl)acetamide], at ErbB2 or EGFR, the “Activity (Method)” value is recorded as “+++ (B) (at least one pIC50 measurement of greater than 7 against either ErbB2 or EGFR)”. The half-inhibitory concentration (IC50) (in test [1]; in the test with Colo205 tumor cell lines) was more than 1000 nM each time.

For the molecule `Cc1sc(-c2ccccc2)nc1CC(=O)Nc1cccc(-c2nn3ccccc3c2-c2ccnc(Nc3cccc(CN(C)C)c3)n2)c1` [Example 29, N-(3-{3-[2-({3-[(Dimethylamino)methyl]phenyl}amino)-4-pyrimidinyl]pyrazolo[1,5-a]pyridin-2-yl}phenyl)-2-(5-methyl-2-phenyl-1,3-thiazol-4-yl)acetamide], at ErbB2 or EGFR, the “Activity (Method)” value is recorded as “+ (B) (no pIC50 measurement greater than 6 against either ErbB2 or EGFR)”. Also, the IC50 (in test [1]; in the test on Colo205 tumor cell lines) was more than 1000 nM each time.

On to `CN(C)CCOc1cccc(Nc2nccc(-c3c(-c4cccc(NC(=O)Cc5ccsc5)c4)nn4ccccc34)n2)c1` [Example 39, N-[3-(3-{2-[(3-{[2-(dimethylamino)ethyl]oxy}phenyl)amino]-4-pyrimidinyl}pyrazolo[1,5-a]pyridin-2-yl)phenyl]-2-(3-thienyl)acetamide], for which the “Activity (Method)” value at ErbB2 or EGFR is reported as “+++ (B) (at least one pIC50 measurement of greater than 7 against either ErbB2 or EGFR)”. For the same molecule, the concentration for half-maximal inhibition (IC50) (in test [1]; in the test on Colo205 tumor cell lines) was 100 to 1000 nM in each case.

For `NCc1cccc(Nc2nccc(-c3c(-c4cccc(NC(=O)Cc5ccsc5)c4)nn4ccccc34)n2)c1` [Example 43, N-{3-[3-(2-{[3-(Aminomethyl)phenyl]amino}-4-pyrimidinyl)pyrazolo[1,5-a]pyridin-2-yl]phenyl}-2-(3-thienyl)acetamide], the “Activity (Method)” value on ErbB2 or EGFR is “+++ (B) (at least one pIC50 measurement of greater than 7 against either ErbB2 or EGFR)”. The IC50 in test [1] was 100 to 1000 nM; in the test on Colo205 tumor cell lines, more than 1000 nM.

On to `O=C(Cc1cccs1)Nc1cccc(-c2nn3ccccc3c2-c2ccnc(Nc3ccc(Cl)c(OCCN4CCCC4)c3)n2)c1` [Example 44, N-[3-(3-{2-[(4-chloro-3-{[2-(1-pyrrolidinyl)ethyl]oxy}phenyl)amino]-4-pyrimidinyl}pyrazolo[1,5-a]pyridin-2-yl)phenyl]-2-(2-thienyl)acetamide], for which the “Activity (Method)” value on ErbB2 or EGFR was “+++ (B) (at least one pIC50 measurement of greater than 7 against either ErbB2 or EGFR)”. For the same molecule, the IC50 (in test [1]; in the test on Colo205 tumor cell lines) was more than 1000 nM each time.

With `CN(C)CCOc1cc(Nc2nccc(-c3c(-c4cccc(NC(=O)Cc5cccs5)c4)nn4ccccc34)n2)ccc1Cl` [Example 45], the “Activity (Method)” value at ErbB2 or EGFR was “++ (B) (at least one pIC50 measurement greater than 6 against either ErbB2 or EGFR but no measurement greater than pIC50 of 7)”. The IC50 (in test [1]; in the test with Colo205 tumor cell lines) was more than 1000 nM each time.

For `CN(C)C1Cc2ccc(Nc3nccc(-c4c(-c5cccc(NC(=O)Cc6cccs6)c5)nn5ccccc45)n3)cc2C1` (stereo not drawn) [Example 53, N-{3-[3-(2-{[2-(Dimethylamino)-2,3-dihydro-1H-inden-5-yl]amino}pyrimidin-4-yl)pyrazolo[1,5-a]pyridin-2-yl]phenyl}-2-(2-thienyl)acetamide], the “Activity (Method)” value at ErbB2 or EGFR is “+++ (B) (at least one pIC50 measurement of greater than 7 against either ErbB2 or EGFR)”. In addition, the IC50 (in test [1]; in the test on Colo205 tumor cell lines) was 100 to 1000 nM each time.

For the molecule `NC1Cc2ccc(Nc3nccc(-c4c(-c5cccc(NC(=O)Cc6cccs6)c5)nn5ccccc45)n3)cc2C1` (stereo not drawn) [Example 54, N-[3-(3-{2-[(2-Amino-2,3-dihydro-1H-inden-5-yl)amino]-4-pyrimidinyl}pyrazolo[1,5-a]pyridin-2-yl)phenyl]-2-(2-thienyl)acetamide], the “Activity (Method)” value at ErbB2 or EGFR is “+++ (B) (at least one pIC50 measurement of greater than 7 against either ErbB2 or EGFR)”. The IC50 in test [1] is less than 100 nM; with Colo205 tumor cell lines, 100 to 1000 nM.
